According to patent publication US20040180925A1, “Dipeptidylpeptidase-IV inhibitor” (priority 2000, published 2004):
Counter-ions that a name gives are not always drawn.

How the values were obtained:
DPP-IV = target: T1, DPP-IV (Rattus norvegicus, UniProt P14740); test: Test for inhibitory action against DPP-IV (rat serum, Gly-Pro-AMC fluorescence); format: biochemical; conditions: Gly-Pro-AMC 50 μmol/L, pH 7.8, room temperature 20 minutes
T1 construct: The coagulated blood was centrifuged at 3,000 rpm for 20 minutes to separate serum for use in the experiment; from tissue; host or cells: rat serum (blood from the crural aorta, coagulated and centrifuged)
Experimental: Under mild anesthesia with diethylether, a rat was incised at lower left side of the limb, and the crural aorta was cut and blood was collected. The collected blood was immediately ice-cooled. The coagulated blood was centrifuged at 3,000 rpm for 20 minutes to separate serum for use in the experiment. As reaction buffer, an aqueous solution containing HEPES (final concentration of 25 mmol/L) and sodium chloride (final concentration of 140 mmol/L) was prepared so as to give a final pH of 7.8, and used after addition of BSA (final concentration of 1%). An assay was conducted using a black, flat-bottomed 96 well plate. A test sample (2 μL) was added to each well, and the sample was added with rat serum (25 u L) and reaction buffer (25 u L) containing magnesium chloride (80 mmol/L), and the mixture was left stand at room temperature for 5 minutes. Then, a reaction was initiated by the addition of 50 u L of a solution of Gly-Pro-AMC (AMC: 7-amino-4-methylcoumarin) (final concentration of 50 μmol/L) to each well, and the mixture was left stand in the dark at room temperature for 20 minutes. AMC, which was released by DPP-IV activity, was quantified by measurement of fluorescence at 460 nm which was excited at 390 nm. DPP-IV activity was calculated according to the following equation:
Inhibitory activity against DPP-IV=100×{1−(Fs−F0)/(F100−F0)}
F100: Fluorescence intensity of AMC with addition of serum
F0: Fluorescence intensity of AMC without addition of serum
Fs: Fluorescence intensity of AMC with addition of a sample and serum

Wistar male rats [1] = test: Suppressing effect on increase of blood sugar after oral glucose loading (Test Example 3, glucose oxidase method); format: in vivo, rat; conditions: Wistar male rats fasted 24 hours, 1 mg/kg po; for Blood-sugar level, 0 minute: 0 minute (before glucose loading); for Blood-sugar level, 30 minutes after glucose loading: glucose 2 g/kg po
Experimental: Blood-sugar levels of Wistar male rats (10-week old, Charles river) fasted for 24 hours were measured. A test compound was orally administered to the rats in a dose of 1 mg/kg, and then immediately glucose (2 g/kg) was orally administered to the rats. After 30 minutes from the glucose loading, blood-sugar levels were further measured to evaluate suppressing effects of test compounds on increase of blood sugar. The sugar levels were measured by the glucose oxidase method [Clin. Chem., 6, 466 (1960); J. Clin. Path., 22, 246 (1969); Clin. Chem. Acta, 40, 115 (1972); Clin. Chem., 20, 606 (1974) or the like]. The test compounds were dissolved in 0.5% methylcellulose 400 for administration.

Wistar male rats [2] = test: Suppressing effect on increase of blood sugar after oral glucose loading (Test Example 2); format: in vivo, rat; conditions: Wistar male rats fasted 24 hours, 30 mg/kg po
Experimental: Blood-sugar levels of Wistar male rats (9-week old, Charles river) fasted for 24 hours were measured. A test compound was orally administered to the rats in a dose of […], and then immediately glucose (2 g/kg) was orally administered to the rats. After 30 minutes from the glucose loading, blood-sugar levels were further measured to evaluate suppressing effects of test compounds on increase of blood sugar. The blood-sugar levels were measured by a portable apparatus for measurement of blood sugar [Blood glucose meter, Dexter-Z (Bayer. Sankyo, Tokyo)]. The test compounds were dissolved in 0.5% methylcellulose 400 for administration. The results are shown in Table 3 (** indicates p<0.01 in Student's t-test).

T1 sequence (P14740 37-767 limits assumed): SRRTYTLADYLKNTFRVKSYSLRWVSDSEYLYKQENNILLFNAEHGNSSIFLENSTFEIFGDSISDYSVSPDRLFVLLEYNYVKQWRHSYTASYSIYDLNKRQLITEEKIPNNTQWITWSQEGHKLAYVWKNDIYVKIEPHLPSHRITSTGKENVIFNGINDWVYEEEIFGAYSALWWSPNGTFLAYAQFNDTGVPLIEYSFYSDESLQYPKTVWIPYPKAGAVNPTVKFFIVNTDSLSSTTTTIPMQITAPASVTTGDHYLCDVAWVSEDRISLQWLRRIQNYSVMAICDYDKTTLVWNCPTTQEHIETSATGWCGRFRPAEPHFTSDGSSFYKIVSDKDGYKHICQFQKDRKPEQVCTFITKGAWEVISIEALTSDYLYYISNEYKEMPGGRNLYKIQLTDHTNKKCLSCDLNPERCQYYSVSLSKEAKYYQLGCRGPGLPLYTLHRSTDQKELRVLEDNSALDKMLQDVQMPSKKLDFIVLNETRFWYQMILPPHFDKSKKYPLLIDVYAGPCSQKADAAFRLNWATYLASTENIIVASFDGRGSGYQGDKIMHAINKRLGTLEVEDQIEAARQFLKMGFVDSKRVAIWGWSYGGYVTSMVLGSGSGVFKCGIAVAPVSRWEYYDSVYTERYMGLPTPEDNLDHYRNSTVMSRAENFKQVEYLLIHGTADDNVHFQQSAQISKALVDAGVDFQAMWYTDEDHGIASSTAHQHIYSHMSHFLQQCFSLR

In the case of `CC(C)(CNc1ccc(C(N)=O)cn1)NCC(=O)N1CCC[C@H]1C#N` [Compound 221, (S)-1-[1-(5-Carbamoyl-2-pyridylamino)-2-methyl-2-propylamino]acetyl-2-pyrrolidinecarbonitrile], the IC50 (DPP-IV) is reported as 27 nM.

Work on `N#Cc1ccc(NCC2(NC(=O)CN3CCC[C@H]3C#N)CCCC2)nc1` [Compound 602, 1-[(5-Cyanopyridin-2-ylamino)methyl]-1-[(S)-2-cyanopyrrolidinylacetylamino]cyclopentane fumarate] yielded an IC50 (DPP-IV) of 41 nM.

Work on `N#C[C@@H]1CCCN1C(=O)CNC1CCN(S(=O)(=O)c2ccccc2)CC1` [Compound 407, (S)-1-(1-Benzenesulfonyl-4-piperidylamino)acetyl-2-carbonitrile methanesulfonate] yielded an IC50 (DPP-IV) of 20 nM.

With `CC1(NCC(=O)N2CCC[C@H]2C#N)CCN(c2ncccn2)CC1` [Compound 233, (S)-1-[4-Methyl-1-(2-pyrimidinyl)-4-piperidylamino]acetyl-2-pyrrolidinecarbonitrile] the “Blood-sugar level, 0 minute” value (Wistar male rats [1]) was 93 ± 15 mg/dL, the “Blood-sugar level, 30 minutes after glucose loading” value (shortened to “Blood-sugar level, 30 minutes”) (Wistar male rats [1]) was 183 ± 8 mg/dL and the IC50 (DPP-IV) was 19 nM.

`CC1(NCC(=O)N2CCC[C@H]2C#N)CCN(c2ccc(S(=O)(=O)N3CC=CC3)cn2)CC1` [Compound 529, (S)-1-{4-Methyl-1-[5-(3-pyrrolin-1-ylsulfonyl)-2-pyridyl]-4-piperidylamino}acetyl-2-pyrrolidinecarbonitrile] showed an IC50 (DPP-IV) of 26 nM.

In the case of `CC1(NCC(=O)N2CCC[C@H]2C#N)CCN(c2ccc(C#N)cn2)CC1` [Compound 207, (S)-1-[1-(5-Cyano-2-pyridyl)-4-methyl-4-piperidylamino]acetyl-2-pyrrolidinecarbonitrile dihydrochloride], the IC50 (DPP-IV) is reported as 15 nM.

`N#Cc1cccnc1NCc1ccc(CNCC(=O)N2CCC[C@H]2C#N)cc1` [Compound 201, (S)-1-{4-[(3-Cyano-2-pyridyl)aminomethyl]benzylamino}acetyl-2-pyrrolidinecarbonitrile oxalate] gave an IC50 (DPP-IV) of 392 nM.

For `CCN(C)S(=O)(=O)c1ccc(NCC(C)(C)NCC(=O)N2CCC[C@H]2C#N)nc1` [Compound 513, (S)-1-{1-[5-(N-Ethyl-N-methylaminosulfonyl)-2-pyridylamino]-2-methyl-2-propylamino}acetyl-2-pyrrolidinecarbonitrile], the “Blood-sugar level, 0 minute” value (Wistar male rats [1]) was 109 ± 6 mg/dL and the “Blood-sugar level, 30 minutes” value (Wistar male rats [1]) was 252 ± 22 mg/dL.

Molecule `CC(C)(CNc1nccs1)NCC(=O)N1CCC[C@H]1C#N` [Compound 226, (S)-1-[2-Methyl-1-(2-thiazolylamino)-2-propylamino]acetyl-2-pyrrolidinecarbonitrile fumarate] has an IC50 (DPP-IV) of 18 nM.

`N#C[C@@H]1CCCN1C(=O)CNCCNc1cnc2ccccc2n1` [Compound 103, (S)-1-[2-(2-Quinoxalinylamino)ethylamino]acetyl-2-pyrrolidinecarbonitrile dihydrochloride] was tested, and the IC50 (DPP-IV) was 61 nM.

`CC(C)(CNc1ccc(S(=O)(=O)NCCO)cn1)NCC(=O)N1CCC[C@H]1C#N` [Compound 524, (S)-1-{1-{5-[N-(2-Hydroxyethyl)aminosulfonyl]-2-pyridylamino}-2-methyl-2-propylamino}acetyl-2-pyrrolidinecarbonitrile] showed an IC50 (DPP-IV) of 34 nM.

With `CN(C)S(=O)(=O)c1ccc(NCC(C)(C)NCC(=O)N2CCC[C@H]2C#N)nc1` [Compound 501, (S)-1-{1-[5-(N,N-Dimethylaminosulfonyl)-2-pyridylamino]-2-methyl-2-propylamino}acetyl-2-pyrrolidinecarbonitrile] the “Blood-sugar level, 0 minute” value (Wistar male rats [1]) was 95 ± 7 mg/dL, the “Blood-sugar level, 30 minutes” value (Wistar male rats [1]) was 182 ± 16 mg/dL and the IC50 (DPP-IV) was 23 nM.

`CC1(NCC(=O)N2CCC[C@H]2C#N)CCN(c2ccccn2)CC1` [Compound 238, (S)-1-[4-Methyl-1-(2-pyridyl)-4-piperidylamino]acetyl-2-pyrrolidinecarbonitrile dihydrochloride] gave an IC50 (DPP-IV) of 11 nM.

`N#C[C@@H]1CCCN1C(=O)CNCCNc1cnccn1` [Compound 101, (S)-1-[2-(2-Pyrazinylamino)ethylamino]acetyl-2-pyrrolidinecarbonitrile dimethanesulfonate] was tested, and the “blood sugar level, 0 minute” value (Wistar male rats [2]; 0 minute (before glucose loading)) was 68 ± 2 mg/dL, the “blood sugar level, 30 minutes after glucose loading” value (Wistar male rats [2]; glucose 2 g/kg po, 30 minutes, ** p<0.01 Student's t-test) was 104 ± 4** mg/dL and the IC50 (DPP-IV) was 31 nM.

`N#C[C@@H]1CCCN1C(=O)CNCCNC(=O)c1ccccc1` [Compound 403, (S)-1-(2-Benzamidoethylamino)acetyl-2-pyrrolidinecarbonitrile hydrochloride] was tested, and the IC50 (DPP-IV) was 124 nM.

Molecule `CC(C)(CNc1ccc(C#N)cc1)NCC(=O)N1CCC[C@H]1C#N` [Compound 703, (S)-1-[1-(4-Cyanoanilino)-2-methyl-2-propylamino]acetyl-2-carbonitrile fumarate] has an IC50 (DPP-IV) of 53 nM.
